As usually defined, the melting point is the temperature, or range, at which the solid turns liquid. Regarding `N#CCCCOc1cccc(OCc2ccc3ccccc3n2)c1`, the melting point lay within 84 to 85 °C.

Regarding `CS(=O)(=O)c1ccc(Cl)cc1[N+](=O)[O-]`, the melting point turned out to be 145 °C.

Turning to `CC(=O)CCc1nsc2ccc(-n3c(=O)cc(C(F)(F)F)n(C)c3=O)cc12`, the melting point lay in the range of 198 to 199 °C.

As for `NC1=NS(=O)(=O)Nc2cccc(OC3CCCCC3)c21`, the melting point is 215 to 216 °C.

`CC(C)OC(=O)N1CCC(c2ccc3nc(-c4ccc(S(C)(=O)=O)cc4F)oc3c2)CC1`: the melting point fell in the range of 170 to 174 °C.

As to `COc1ccc2occ(CCN3CCN(c4cc(Cl)cc5cccnc45)CC3)c2c1`, the melting point was 72 °C.

For `Nc1ncc(CN2CC=C(c3ccc(F)cc3)CC2)c(N)n1`, the melting point stood at 265 °C.

Compound `CCOc1cc2c(Nc3ccc(OC)cc3)c(CO)cnc2nc1C` returned a melting point of 193 to 197 °C.

`O=Cc1cn(C2CCCCC2)nc1-c1ccc([N+](=O)[O-])o1` registered a melting point of 150 to 151 °C.

For the compound `CCCCc1nc2c(C(N)=O)cccc2n1Cc1ccc(-c2ccccc2-c2nnn[nH]2)cc1`, the melting point lay in the range of 235 to 236 °C.

`Cc1cc(CSCCNC(=C[N+](=O)[O-])NCC(O)c2ccccc2)sc1CN(C)C` (centres undefined) registered a melting point of 114 to 115 °C.

Take `O=C(O)c1ccc2cn(C3CCCC3)nc2c1`: the melting point lay within 190 to 193 °C.

As for `CC(O)c1ccc(-c2ccc([N+](=O)[O-])cc2)o1` (centres undefined), the melting point lay within 69.5 to 70.5 °C.

For `CN(Cc1ccccc1)CC1CCSc2[nH]c3ccccc3c21` (centres undefined), the melting point was 91 to 93 °C.

Consider `O=C1CCCc2nc3ccccc3c(NCc3cccc(Cl)c3)c21`, for which the melting point was 138 to 140 °C.

Compound `c1ccc(N2CCNNCC2)cc1` yielded a melting point of 211 to 218 °C.

As to `CCC(COC(=O)c1ccc[nH]1)C1CN(C)C2Cc3cn(C)c4cccc(c34)C2(OC)C1` (centres undefined), the melting point lay in the range of 96 to 98 °C.

Consider `COc1cc(C(O)Cc2ccccc2)ccc1OCc1ccccc1` (centres undefined), for which the melting point was 97 to 98 °C.

`CCOCc1nc2c(N)nc3cccnc3c2n1C1(OC)CCCCC1` had a melting point of 160 to 161 °C.

Compound `COc1cccc(CN(CC(=O)O)Cc2ccccc2)c1` yielded a melting point of 177 to 179 °C.

The compound `Cn1c(Sc2cc(C(F)(F)F)ccc2C(=O)O)n[nH]c1=O` had a melting point of 229 °C.

In turn, `CCCSC(=S)N1Cc2[nH]c3ccccc3c2CC1CO` (centres undefined) gave a melting point of 130 to 131 °C.

`CCOc1ccc(C=CC(=O)c2c(OC)cc(OC)cc2OC(=O)CC)cc1`: the melting point is 105 °C.

For `CN(C(=O)OC(C)(C)C)c1ccc2onc(OCC(CO)NC(=O)OC(C)(C)C)c2c1` (centres undefined), the melting point was 109 to 112 °C.

`O=C(O)C1=Cc2cc(O)ccc2S(=O)(=O)CC1` showed a melting point of 260 to 265 °C.

In turn, `CC(C)c1cccc(C(C)C)c1NC(=O)CN1CCCN(CCCSc2nc3ccccc3o2)CC1` returned a melting point of 109 to 111 °C.

As for `CC1(C)COc2c1cc(C=O)c(O)c2Br`, the melting point fell in the range of 152 to 154 °C.

The compound `CN(CCNC(=O)Cc1ccc(OCc2ccc(-c3ccccc3)cc2)cc1)C(=O)OC(C)(C)C` registered a melting point of 109 to 110 °C.

For the compound `CCCC1=C(C#N)C(c2ccccc2Cl)c2c(n[nH]c2C)N1` (centres undefined), the melting point was 260 °C.

On to `O=C1OCCN1CCO`, for which the melting point is 32 to 33 °C.

As to `CSC(=S)NN=Cc1nc(-c2ccccc2)[nH]c1C`, the melting point was 180 to 185 °C.

The compound `CC(c1ccnc(C#N)c1)C(O)(Cn1cncn1)c1ccc(F)cc1F` (centres undefined) yielded a melting point of 188 to 189 °C.

`CC(C)(C)[Si](C)(C)Oc1ccc(N)c([N+](=O)[O-])c1` yielded a melting point of 80 to 83 °C.

Regarding `CCCCN(Cc1ccc(-c2ccccc2S(=O)(=O)NC(=O)OC(C)(C)C)cc1)C(=O)N1CCCc2ccccc21`, the melting point was above 67 °C.

For `CC1Cc2cc(Cl)c(Cl)cc2C(c2ccc([N+](=O)[O-])cc2)=NN1` (centres undefined), the melting point was 182 to 184 °C.

As for `COc1cc(CC2SC(=O)NC2=O)ccc1OCCN1c2ccccc2Sc2ccccc21` (centres undefined), the melting point fell in the range of 46 to 48 °C.

For `O=C(Oc1ccc2cc(CN3CCCC3)ccc2c1)N1CCC(c2ccc(Cl)cc2)CC1`, the melting point lay in the range of 121 to 123 °C.

For the compound `Nc1ccccc1NC(=O)c1cc2cc(OCCN3CCOCC3)ccc2s1`, the melting point was 166 to 169 °C.

For `COc1cc(OCC(=O)O)c2c3c(n(Cc4ccccc4)c2c1)CCCC3C(N)=O` (centres undefined), the melting point lay within 251 to 254 °C.

`O=C(O)CCc1cnn2c(=O)[nH]cnc12` had a melting point of 277 °C.

Take `COc1cccc(CNC(=O)c2nc3cccc(COCc4ccc(C(=O)O)cc4)c3c(=O)[nH]2)c1`: the melting point is 230 to 232 °C.

For `O=C(N[C@H](Cc1ccc(C(F)(F)F)cc1)[C@@H](O)c1ccc(F)cc1F)c1ccc(F)c2ccccc12` (racemic), the melting point fell in the range of 194 to 195 °C.

As to `CN1CC(=O)N(SC(Cl)(Cl)Cl)C1=O`, the melting point fell in the range of 110 to 112 °C.

`CC(C)c1nc(CO)n(CC(=O)c2ccccc2)c1Sc1cc(Cl)cc(Cl)c1` returned a melting point of 205 to 211 °C.

`CCc1cc2c(s1)-n1c(C)nnc1C(CC(=O)Nc1ccccc1)N=C2c1ccc(Cl)cc1` (centres undefined) came in with a melting point of 238 to 239 °C.

The compound `COC(=O)CCC(=O)CBr` came in with a melting point of 12 to 15 °C.

In turn, `COC(=O)Nc1nc2cc(SCC3CCCCC3)ccc2[nH]1` showed a melting point of 200 to 204 °C.

Compound `CN(C=O)C1c2ccccc2CCc2cc(Cl)ccc21` (centres undefined) registered a melting point of 122 to 124 °C.

Consider `CSCCS(=O)(=O)NCCCc1ccc(-c2ccc(=O)[nH]n2)cc1`, for which the melting point fell in the range of 173 to 174 °C.

In the case of `Nc1ccc(Oc2cccc3c(Oc4ccc(N)c(O)c4)cccc23)cc1O`, the melting point lay within 251 to 253 °C.

With `Cn1ccnc1C(=O)Nc1ccc(-n2nc(C(F)(F)F)cc2C2CC2)cc1`, the melting point fell in the range of 132 to 134 °C.

The compound `CC(=O)NC[C@H]1CN(c2ccc(Br)cn2)C(=O)O1` gave a melting point of 166 to 168 °C.

On to `CCCC(C)CNc1cccc(-c2ccnc3c(C(=O)c4cccs4)cnn23)c1` (centres undefined), for which the melting point was 133 to 135 °C.

In turn, `CC(C)(C)Sc1c(CC(C)(C)C(=O)O)n(Cc2ccc(Cl)cc2)c2cc(OCc3ccc4ccccc4n3)ccc12` had a melting point of 165 to 167 °C.

`CCOC(CCP(=O)(OCC)OCC)(C(=O)c1ccccc1)c1ccccc1` (centres undefined) yielded a melting point of 75 °C.

In turn, `O=C(c1ccc(F)cc1)C1CCN(CCCO)CC1` displayed a melting point of 107 to 109 °C.

The compound `Nc1c(-c2ccc(C(F)(F)F)cc2)nc2ccc(F)cc2c1C(=O)O` displayed a melting point of 260 to 262 °C.

As to `Cc1ccccc1S(=O)(=O)n1c(CCCC(=O)O)cc2nc(Cl)ccc21`, the melting point was determined as 161 °C.

`CC(C)Cc1ccc(C(C)C(=O)ON(C(N)=O)C(C)c2ccoc2)cc1` (centres undefined) showed a melting point of 55 to 59 °C.

Compound `COc1ccc(-c2cc(=O)c3c(O)cc(OCC4=COC(C)(C)O4)cc3o2)cc1OCC1=COC(C)(C)O1` returned a melting point of 155 to 156 °C.

Compound `COc1ccc(C(=O)NC(=O)Nc2cc3c(cc2F)/C(=C/c2ccc[nH]2)C(=O)N3)cc1` yielded a melting point of 290 to 295 °C.

The compound `N#Cc1ccc(NN)cc1` gave a melting point of 84 to 87 °C.

Take `C=C(c1ccc(-c2ncnn2COCC)cc1)C(O)(Cn1cncn1)c1ccc(F)cc1F` (centres undefined): the melting point lay within 160 to 162 °C.

The compound `CC(=O)C(C(=O)c1ccc(Cl)cc1)C(=O)c1ccc(C(F)(F)F)cc1[N+](=O)[O-]` (centres undefined) had a melting point of 102 to 104 °C.

`CC(=O)c1nc(-c2ccccn2)[nH]c1C` returned a melting point of 145 to 147 °C.

`CCCc1nn(-c2ccc(C(F)(F)F)cn2)cc1CCCOc1c(Br)cccc1CC(=O)O` showed a melting point of 145 to 146 °C.

The compound `COc1cccc(NC(NC(C)C(C)(C)C)=C(C#N)S(=O)(=O)C(C)C)c1` (centres undefined) gave a melting point of 59 to 62 °C.

`Cc1ccc(-c2ccc(C)cc2C=CC#Cc2ccc(C(=O)O)cc2)cc1` came in with a melting point of 61 to 67 °C.

The compound `CN1C(=O)S/C(=C\c2cn(-c3ccccc3)nc2OCc2ccccc2)C1=O` registered a melting point of 226 to 227 °C.

The compound `COc1cc(CCNCc2ccccc2)c(CC(=O)O)cc1OC` came in with a melting point of 213 to 214 °C.

The compound `Cc1ccc(S(=O)(=O)O[C@@H]2C[C@@H](C(=O)NC(C)(C)C)N(C(=O)OC(C)(C)C)C2)cc1` came in with a melting point of 125 to 127 °C.

In turn, `COc1cc(Cl)ccc1C(C)=O` yielded a melting point of 55 °C.

Turning to `CCCCc1c(C(=O)O)ccc2ccc(OC)cc12`, the melting point lay within 123 to 125 °C.

In turn, `O=C1CCC2=C1C(c1ccc(Br)c(Br)c1)C1=C(CCS1)N2` (centres undefined) registered a melting point above 260 °C.

As to `COC(=O)C1CCCn2c(=O)n(CCCl)c(=O)n21` (centres undefined), the melting point was in the range of 94 to 95 °C.

In turn, `Cc1nc(C)c(Cl)c(NCc2nccc(SCCCCSCCn3c([N+](=O)[O-])cnc3C)c2C)n1` yielded a melting point of 142 to 144 °C.

Consider `COC(=O)[C@@H]1CCCN1C(=O)C[C@H]1CCc2ccccc2C1`, for which the melting point is 62 to 64 °C.

Compound `Fc1ccc(-c2cc(NCc3cccc(NCc4ccccc4)n3)n[nH]2)cc1` gave a melting point of 117 to 118 °C.

As to `Cc1cccc(-c2csc(N3CCN(C(=O)Nc4cccnc4)CC3)n2)c1`, the melting point lay in the range of 157 to 158 °C.

Consider `Cn1cc(-c2ccc(C(F)(F)F)cc2)c(=O)c(-c2cccc(C(F)(F)F)c2)c1`, for which the melting point was 110 to 113 °C.

Turning to `CC(C)(C)OC(=O)N1CCC(CBr)CC1`, the melting point was 48 to 50 °C.

With `O=Cc1ccc(-c2cnn(-c3ccc(OC(F)(F)F)cc3)c2)cc1`, the melting point fell in the range of 107 to 109 °C.

For `CC(C)Cn1c(N)nc2c(N)nc3ccccc3c21`, the melting point is above 250 °C.

Turning to `c1ccc2oc(SSCCSSc3nc4ccccc4o3)nc2c1`, the melting point was 124 to 125 °C.

The compound `COC(=O)c1cc(O)n2nc(C)nc2n1` had a melting point of 170 to 174 °C.

As to `COc1cc(OCc2ccncc2)ccc1/C=C/c1cc(/C=C/c2cccc3cc[nH]c23)n[nH]1`, the melting point fell in the range of 201 to 206 °C.

Regarding `COc1cc(N)c(Cl)cc1C(=O)NCC1CCN(CCS(=O)(=O)CCc2ccccc2)CC1`, the melting point lay in the range of 161 to 162 °C.

As for `OC1(c2ccccc2)CCN(CCN2CCN(Cc3cc(C(F)(F)F)cc(C(F)(F)F)c3)CC2c2ccc(Cl)c(Cl)c2)CC1` (centres undefined), the melting point was in the range of 71 to 72 °C.

`Nc1nc2c(sc(=O)n2COCCO)c(=O)[nH]1` had a melting point of 230 to 232 °C.

The values above are taken from a melting point compilation (Tetko et al.; mined from patent text by program, amines drawn as free bases though some values may be those of a salt).
